# Experiments:
# Type in all cases: in vivo
# [1] = system: rice (Nipponbare) (Oryza sativa L. cv. Nipponbare); test: Influence of AOH and 3-methyl-AOH on rice seedlings in test tube culture fluid (Example 12); conditions: 0.2 mM in culture fluid, 28° C., one week; for Extension of roots: FIG. 8
# Protocol: Sterilized seeds of rice (Nipponbare) (Oryza sativa L. cv. Nipponbare) were allowed to sprout at 28° C. in three days. The sprouted seeds (four seeds per test tube) were cultivated in a test tube, in which a control culture fluid, a culture fluid to which 0.2 mM of AOH was added, or a culture fluid to which 0.2 mM of 3-methyl-AOH was added and was placed, at 28° C. for a week. The control culture fluid comprises 0.5 mM of NH4NO3, 0.3 mM of Na2HPO4, 0.15 mM of K2SO4, 0.2 mM of MgCl2, 0.1 mM of CaCl2, 23 μM of Fe-ethylenediaminetetraacetic acid (Fe-EDTA), 25 μM of H3BO3, 4.5 μM of MnSO4, 0.15 μM of CuSO4, 0.35 μM of ZnSO4, and 0.05 μM of Na2MoO4. The culture fluid was replaced with new culture fluid every other day. After cultivation, the length of shoots and roots was measured. […] (In FIG. 8, “*” indicates P value <0.05, and “**” indicates P value <0.01. n=16.). In contrast, 3-methyl-AOH gave no influence on extension of the shoots.
# [2] = system: Zoysiagrass (Agrostis stolonifera); test: Zoysiagrass cultivated on agar medium added with AHX; conditions: agar medium with 1 mM AHX, 30 days, vs control section
# Rice (Oryza sativa) = test: Rice cultivated in culture fluid added with AHX; conditions: culture fluid with 0.2 mM AHX, 14 days, vs control section
# [3] = system: rice (Nipponbare) (Oryza sativa L. cv. Nipponbare); test: Influence of AHX or AOH on rice seedlings in test tube culture fluid (Example 6); conditions: 50, 200 or 1000 μM in culture fluid, 28° C., one week, FIG. 4
# Protocol: Sterilized seeds of rice (Nipponbare) (Oryza sativa L. cv. Nipponbare) were allowed to sprout at 28° C. in three days. The sprouted seeds (four seeds per test tube) were cultivated in a test tube, in which a control culture fluid or a culture fluid to which AHX or AOH was added to different concentrations and was placed, at 28° C. for a week. AOH that was produced according to the method of Example 5 was used. The control culture fluid comprises 0.5 mM of NH4NO3, 0.3 mM of Na2HPO4, 0.15 mM of K2SO4, 0.2 mM of MgCl2, 0.1 mM of CaCl2, 23 μM of Fe-ethylenediaminetetraacetic acid (Fe-EDTA), 25 μM of H3BO3, 4.5 μM of MnSO4, 0.15 μM of CuSO4, 0.35 μM of ZnSO4, and 0.05 μM of Na2MoO4. As for the culture fluids containing AHX or AOH, AHX or AOH is added to the above described control culture fluids such that the final concentration becomes 50 μM, 200 μM or 1000 μM. The culture fluid was replaced with new culture fluid every other day. After cultivation, the length of shoots and roots was measured.
# [4] = system: rice (Nipponbare) (Oryza sativa L. cv. Nipponbare); test: Influence of AOH on soil cultivation of rice (pot cultivation)
# Protocol: Rice (Nipponbare) (Oryza sativa L. cv. Nipponbare) was sown on Apr. 29, 2011, and each of grown seedlings was transplanted to a pot (1/5000a pot) filled with soil which contains a fertilizer comprising N (1440 mg), P2O5 (12 mg), K2O (760 mg) and CaO (806 mg) on June 7th, and was soil-cultivated in a greenhouse (28° C.) under any one of seven types of cultivation conditions of the following (1) to (7) until September 24th. Supply of water was performed by providing two liter of tap water or tap water to which AOH was added every week (see below).
# (1) Tap water was provided during pot cultivation.
# (2) Tap water to which AOH was added such that the final concentration became 50 μM was provided for two weeks (from June 7th to June 20th) in the planting stage. Tap water was provided in the other period.
# (3) Tap water to which AOH was added such that the final concentration became 50 μM was provided for two weeks (from July 4th to July 17th) in the tillering stage. Tap water was provided in the other period.
# (4) Tap water added to which AOH was added such that the final concentration became 50 μM was provided for two weeks (from July 25th to August 7th) in the topdressing stage for panicle formation. Tap water was provided in the other period.
# (5) Tap water added to which AOH was added such that the final concentration became 50 μM was provided for two weeks (from August 15th to August 28th) in the topdressing stage for ripening. Tap water was provided in the other period. […]
# (7) Tap water to which AOH was added such that the final concentration became 50 μM was provided during pot cultivation.
# Brown rice and plant bodies soil-cultivated were dried at 30° C. for 15 days, and brown rice weight (both of weight per plant and weight per 100 brown rice grains), panicle length, culm length, number of panicles, number of tillers, and aerial part weight were measured.
# [5] = system: rice (Nipponbare) (Oryza sativa L. cv. Nipponbare); test: Influence of AOH on soil cultivation of rice (field cultivation)
# Protocol: Rice (Nipponbare) (Oryza sativa L. cv. Nipponbare) was used and cultivated in a field as follows. As cultivation conditions, five sections of (1) to (5) were set.
# Rice (Nipponbare) (Oryza sativa L. cv. Nipponbare) was sown in a nursery box on Apr. 29, 2011, and provided with a total of 15 liters of tap water or tap water to which AOH was added for two weeks from May 24th while raising seedling in the nursery box. On June 7th, each of grown seedlings was transplanted to the field. The planting density was set to the interrow space of 30 cm and the planting distance of 15 cm (three reproductions of 3×3.3 m per one section). As basal fertilizer, 50 L of tap water or tap water to which AOH was added per section was supplied on June 7th. The cultivation was continued, and as topdressing for panicle formation, 50 L of tap water or tap water to which AOH was added per section was supplied on July 25th. Plant bodies were harvested on October 12th.
# (1) Tap water was used as the culture fluid during seedling raising, the basal fertilizer, and the topdressing for panicle formation.
# (2) Tap water to which AOH was added such that the final concentration became 0.5 mM was provided as the culture fluid during seedling raising. Tap water was used as the basal fertilizer, and the topdressing for panicle formation.
# (3) Tap water to which AOH was added such that the final concentration became 1.0 mM was provided as the culture fluid during seedling raising. Tap water was used as the basal fertilizer and the topdressing for panicle formation.
# (4) Tap water to which AOH was added such that the final concentration became 0.5 mM was provided as the basal fertilizer. Tap water was used as the culture fluid during seedling raising and the topdressing for panicle formation.
# (5) Tap water to which AOH was added such that the final concentration became 0.5 mM was provided as the topdressing for panicle formation. Tap water was used as the culture fluid during seedling raising and the basal fertilizer.
# Brown rice was dried, and total brown rice weight, hull weight, non-sieved brown rice weight and sieved brown rice, per 10 plant bodies, and thousand kernel weight were measured.
# [6] = 50 μM AOH, topdressing stage for panicle formation
# [7] = 50 μM AOH, topdressing stage for ripening
# [8] = applying AOH all the time, vs control
# [9] = 0.5 mM AOH during seedling raising
# [10] = 0.5 mM AOH, topdressing at panicle formation
# [11] = 1.0 mM AOH during seedling raising
# [12] = per 10 plants, 0.5 mM AOH as basal fertilizer
# [13] = per 10 plants, 0.5 mM AOH during seedling raising
# [14] = per 10 plants, 0.5 mM AOH, topdressing at panicle formation
# [15] = per 10 plants, 1.0 mM AOH during seedling raising
smiles,measurement,setting,value
"Cn1nnc2[nH]c(=O)[nH]c2c1=O [3-methyl-AOH, 3-methyl-3H-imidazo[4,5-d][1,2,3]triazin-4,6(5H,7H)-dione]",Extension of shoots,[1],no influence
same,Extension of roots,[1],had extension activity for roots
"O=c1[nH]nnc2[nH]cnc12 [AHX, 7H-imidazo[4,5-d][1,2,3]triazin-4(3H)-one]",Extension of shoots,[2],clearly promoted
same,Extension of shoots,Rice (Oryza sativa),clearly promoted
same,Extension of shoots and roots,[3],promoted extension of shoots and roots concentration-dependently
"O=c1[nH]c2nn[nH]c(=O)c2[nH]1 [AOH, 3H-imidazo[4,5-d][1,2,3]triazin-4,6(5H,7H)-dione]",Extension of shoots and roots,[3],promoted extension of shoots and roots concentration-dependently
same,Extension of roots,[1],had extension activity for roots
same,Aerial part,"[4]; 5 μM AOH, all the time",151 ± 6.19 g
same,Brown rice weight (g/100 grains),"[4]; 5 μM AOH, all the time",2.13 ± 0.09 g/100 grains
same,Brown rice weight (g/plant),"[4]; 5 μM AOH, all the time",59.3 ± 2.27 g/plant
same,Culm length,"[4]; 5 μM AOH, all the time",89.7 ± 6.40 cm
same,Increasing rate of aerial part relative to control,"[4]; 5 μM AOH, all the time",30%
same,Increasing rate of brown rice weight per plant relative to control,"[4]; 5 μM AOH, all the time",42%
same,Increasing rate of number of panicles relative to control,"[4]; 5 μM AOH, all the time",24%
same,Number of tillers,"[4]; 5 μM AOH, all the time",37.9 ± 3.71
same,Panicle length,"[4]; 5 μM AOH, all the time",24.5 ± 2.24 cm
same,number of panicles,"[4]; 5 μM AOH, all the time",32.8 ± 2.48
same,Aerial part,"[4]; 50 μM AOH, all the time",147 ± 9.63 g
same,Brown rice weight (g/100 grains),"[4]; 50 μM AOH, all the time",2.15 ± 0.16 g/100 grains
same,Brown rice weight (g/plant),"[4]; 50 μM AOH, all the time",58.2 ± 3.76 g/plant
same,Culm length,"[4]; 50 μM AOH, all the time",92.3 ± 5.64 cm
same,Increasing rate of aerial part relative to control,"[4]; 50 μM AOH, all the time",27%
same,Increasing rate of brown rice weight per plant relative to control,"[4]; 50 μM AOH, all the time",40%
same,Increasing rate of number of panicles relative to control,"[4]; 50 μM AOH, all the time",23%
same,Number of tillers,"[4]; 50 μM AOH, all the time",35.7 ± 4.15
same,Panicle length,"[4]; 50 μM AOH, all the time",24.4 ± 1.96 cm
same,number of panicles,"[4]; 50 μM AOH, all the time",32.7 ± 4.03
same,Aerial part,"[4]; 50 μM AOH, planting stage",125 ± 21.2 g
same,Brown rice weight (g/100 grains),"[4]; 50 μM AOH, planting stage",2.11 ± 0.07 g/100 grains
same,Brown rice weight (g/plant),"[4]; 50 μM AOH, planting stage",46.6 ± 9.43 g/plant
same,Culm length,"[4]; 50 μM AOH, planting stage",97.1 ± 12.1 cm
same,Increasing rate of brown rice weight per plant relative to control,"[4]; 50 μM AOH, planting stage",12%
same,Number of tillers,"[4]; 50 μM AOH, planting stage",34.6 ± 2.70
same,Panicle length,"[4]; 50 μM AOH, planting stage",23.5 ± 1.61 cm
same,number of panicles,"[4]; 50 μM AOH, planting stage",27.8 ± 4.26
same,Aerial part,"[4]; 50 μM AOH, tillering stage",112 ± 30.0 g
same,Brown rice weight (g/100 grains),"[4]; 50 μM AOH, tillering stage",2.12 ± 0.12 g/100 grains
same,Brown rice weight (g/plant),"[4]; 50 μM AOH, tillering stage",42.3 ± 12.2 g/plant
same,Culm length,"[4]; 50 μM AOH, tillering stage",94.5 ± 4.63 cm
same,Number of tillers,"[4]; 50 μM AOH, tillering stage",30.9 ± 3.67
same,Panicle length,"[4]; 50 μM AOH, tillering stage",26.2 ± 1.03 cm
same,number of panicles,"[4]; 50 μM AOH, tillering stage",23.0 ± 5.44
same,Aerial part,[4]; [6],134 ± 16.5 g
same,Brown rice weight (g/100 grains),[4]; [6],2.12 ± 0.07 g/100 grains
same,Brown rice weight (g/plant),[4]; [6],53.7 ± 3.59 g/plant
same,Culm length,[4]; [6],90.2 ± 6.15 cm
same,Increasing rate of brown rice weight per plant relative to control,[4]; [6],29%
same,Number of tillers,[4]; [6],31.6 ± 3.60
same,Panicle length,[4]; [6],24.5 ± 1.61 cm
same,number of panicles,[4]; [6],30.5 ± 4.50
same,Aerial part,[4]; [7],131 ± 13.3 g
same,Brown rice weight (g/100 grains),[4]; [7],2.18 ± 0.08 g/100 grains
same,Brown rice weight (g/plant),[4]; [7],53.2 ± 2.61 g/plant
same,Culm length,[4]; [7],92.8 ± 3.98 cm
same,Increasing rate of brown rice weight per plant relative to control,[4]; [7],28%
same,Number of tillers,[4]; [7],31.4 ± 3.91
same,Panicle length,[4]; [7],24.0 ± 2.07 cm
same,number of panicles,[4]; [7],28.8 ± 4.67
same,aerial part weight,[4]; [8],increased more than the control
same,number of panicles,[4]; [8],increased more than the control
same,brown rice weight per plant,"[4]; applying AOH in the topdressing stage for panicle formation or later, vs control",increased more than the control
same,Increasing rate of sieved brown rice relative to control,[5]; 0.5 mM AOH as basal fertilizer,10.5%
same,Thousand kernel weight,[5]; 0.5 mM AOH as basal fertilizer,23.5 ± 0.6 g
same,Increasing rate of sieved brown rice relative to control,[5]; [9],8.9%
same,Thousand kernel weight,[5]; [9],23.0 ± 0.5 g
same,Increasing rate of sieved brown rice relative to control,[5]; [10],7.2%
same,Thousand kernel weight,[5]; [10],23.4 ± 0.5 g
same,Increasing rate of sieved brown rice relative to control,[5]; [11],10.2%
same,Thousand kernel weight,[5]; [11],23.5 ± 0.3 g
same,Hull weight,"[5]; applying AOH, vs control",increased more than the control
same,Sieved brown rice,"[5]; applying AOH, vs control",increased more than the control
same,non-sieved brown rice weight,"[5]; applying AOH, vs control",increased more than the control
same,total brown rice weight,"[5]; applying AOH, vs control",increased more than the control
same,Hull weight,[5]; [12],288 ± 23.9 g
same,Non-sieved brown rice weight,[5]; [12],230 ± 19.7 g
same,Sieved brown rice,[5]; [12],222 ± 19.8 g
same,Total weight,[5]; [12],644 ± 49.5 g
same,Hull weight,[5]; [13],283 ± 35.0 g
same,Non-sieved brown rice weight,[5]; [13],227 ± 28.9 g
same,Sieved brown rice,[5]; [13],218 ± 29.0 g
same,Total weight,[5]; [13],630 ± 71.4 g
same,Hull weight,[5]; [14],279 ± 24.9 g
same,Non-sieved brown rice weight,[5]; [14],224 ± 20.9 g
same,Sieved brown rice,[5]; [14],215 ± 20.7 g
same,Total weight,[5]; [14],643 ± 54.1 g
same,Hull weight,[5]; [15],284 ± 24.4 g
same,Non-sieved brown rice weight,[5]; [15],228 ± 20.1 g
same,Sieved brown rice,[5]; [15],221 ± 19.5 g
same,Total weight,[5]; [15],638 ± 59.6 g
